Measurements: patent publication US20050282755A1, “Compositions having antimicrobial activity and uses thereof” (priority 2004, published 2005)
Values after ≈ are worked out from the molar mass of the structure shown. Non-standard residues stand in square brackets, D forms with d. Residues, ends and D or L forms follow the SMILES beside them. *: point of attachment. Lauroyl = CCCCCCCCCCCC(=O)*

Columns and labels:
Format in all cases: cell-based
[1] = tested on: Staphylococcus aureus ATCC 29213; assay: MIC, NCCLS M7-A6 broth microdilution, cation-adjusted Mueller Hinton broth (Table 9, no superscript); details: ATCC 29213
Method in brief: (§1)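 MIC, read as the lowest peptide concentration without visible growth compared with peptide-free wells, after overnight incubation at 37° C. Wells held cation-adjusted Mueller Hinton broth and a final inoculum of 5×10^5 to 1×10^6 CFU/mL from log-phase culture.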

[2] = tested on: Escherichia coli ATCC 25922; assay: MIC, NCCLS M7-A6 broth microdilution (Table 9, no superscript); details: ATCC 25922
Method in brief: as §1

[3] = tested on: Pseudomonas aeruginosa ATCC 27853; assay: as above; details: ATCC 27853
Method in brief: as §1

Salmonella dublin (Lane) = assay: as above
Method in brief: as §1

[4] = tested on: Staphylococcus epidermidis ATCC 12228; assay: as above; details: ATCC 12228
Method in brief: as §1

[5] = tested on: Propionibacterium acnes ATCC 6919
Procedure: A second method that was used to determine the MIC in P. acnes for selected antimicrobial agents was a non-standard broth microdilution method that used an assay buffer composed of reinforced Clostridial broth. Briefly, a log-phase bacterial culture of P. acnes was used to inoculate wells of a 96-well plate so that the final inoculum for each well contained 5×10^5 to 1×10^6 CFU/milliliter. […] Plates were incubated for 48-72 hours at 37° C. in a GasPak anaerobic chamber. The lowest concentration of peptide that contained no visible growth as evidenced by a lack of turbidity when compared to the control (no peptide) was determined as the MIC. MIC values that utilized this method of MIC determination are indicated in Table 9 with a subscript letter “d.”

[6] = tested on: Candida albicans ATCC 18804; assay: MIC in yeasts, NCCLS M27-A2 broth microdilution, RPMI 1640 (Table 9, letter e); details: ATCC 18804
Method in brief: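 Plates incubated 24 to 48 hours at 37° C, with yeast seeded at 0.5×10^3–2.5×10^3 CFU/milliliter final in RPMI 1640 (glutamine, phenol red indicator). MIC was read as the lowest peptide concentration showing no visible growth.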

MIC S. aureus [1] [µg/mL] | MIC E. coli [2] [µg/mL] | MIC P. aeruginosa [3] [µg/mL] | MIC S. dublin (Salmonella dublin (Lane)) [µg/mL] | MIC S. epidermidis [4] [µg/mL] | MIC P. acnes [5] [µg·days/mL] | MIC C. albicans [6] [e ug/mL] | SMILES
>64 | – | – | >64 | – | 25 | 8 | CSCC[C@H](NC(=O)[C@H](Cc1ccccc1)NC(=O)[C@H](CC(N)=O)NC(=O)[C@H](CCCNC(=N)N)NC(=O)[C@H](C)NC(=O)[C@@H](NC(=O)[C@H](CC(=O)O)NC(=O)[C@H](CCCNC(=N)N)NC(=O)[C@H](Cc1c[nH]c2ccccc12)NC(=O)[C@H](CCCNC(=N)N)NC(=O)[C@H](CO)NC(=O)[C@H](CCCNC(=N)N)NC(C)=O)C(C)C)C(=O)N[C@@H](CCCNC(=N)N)C(N)=O [Peptide 92, Ac-RSRWRDVARNFMR-NH2] (Ac-RSRWRDVARNFMR-NH2)
16 (≈ 5.8 µM) | – | – | 16 (≈ 5.8 µM) | – | 12.5 | 8 | CCCCCCCCCCCC(=O)N[C@@H](C(=O)N[C@H](CCCNC(=N)N)C(=O)N[C@@H](C(=O)N[C@H](C)C(=O)N[C@H](CCCNC(=N)N)C(=O)N[C@@H](C(=O)NCC(=O)N[C@H](CCCNC(=N)N)C(=O)N[C@H](CO)C(=O)N[C@H](CCCNC(=N)N)C(=O)N[C@H](Cc1c[nH]c2ccccc12)C(=O)N[C@H](CCCNC(=N)N)C(=O)N[C@H](CC(=O)O)C(=O)N[C@H](Cc1c[nH]c2ccccc12)C(=O)N[C@H](C)C(=O)N[C@H](CCCNC(=N)N)C(=O)N[C@H](CC(N)=O)C(=O)N[C@H](Cc1ccccc1)C(=O)N[C@H](CCSC)C(=O)N[C@H](CCCNC(=N)N)C(N)=O)[C@H](C)O)C(C)C)[C@H](C)O [Peptide 77, Lauryl-trvartgrsrwrdwarnfmr-NH2] (Lauroyl-[dT][dR][dV][dA][dR][dT]G[dR][dS][dR][dW][dR][dD][dW][dA][dR][dN][dF][dM][dR]-NH2)
>64 | – | – | >64 | – | 6 | – | CSCC[C@@H](NC(=O)[C@@H](Cc1ccccc1)NC(=O)[C@@H](CC(N)=O)NC(=O)[C@@H](CCCNC(=N)N)NC(=O)[C@@H](CO)NC(=O)[C@@H](Cc1c[nH]c2ccccc12)NC(=O)[C@@H](CC(=O)O)NC(=O)[C@@H](CCCNC(=N)N)NC(=O)[C@@H](Cc1c[nH]c2ccccc12)NC(=O)[C@@H](CCCNC(=N)N)NC(=O)[C@@H](CO)NC(=O)[C@@H](CCCNC(=N)N)NC(=O)CNC(=O)[C@H](NC(=O)[C@@H](CCCNC(=N)N)NC(=O)[C@@H](CO)NC(=O)[C@H](NC(=O)[C@@H](CCCNC(=N)N)NC(=O)[C@H](NC(C)=O)[C@H](C)O)C(C)C)[C@H](C)O)C(=O)N[C@H](CCCNC(=N)N)C(=O)N[C@H](CCCCN)C(=O)N[C@H](CCCCN)C(=O)N[C@H](CCCCN)C(=O)N[C@H](CCCCN)C(=O)N[C@H](CCCCN)C(=O)N[C@H](CCCCN)C(=O)N[C@H](CCCCN)C(=O)N[C@H](CCCCN)C(N)=O [Peptide 34, Ac-trvsrtgrsrwrdwsrnfmrkkkkkkkk-NH2] (Ac-[dT][dR][dV][dS][dR][dT]G[dR][dS][dR][dW][dR][dD][dW][dS][dR][dN][dF][dM][dR][dK][dK][dK][dK][dK][dK][dK][dK]-NH2)
4 (≈ 1.5 µM) | – | – | 16 (≈ 5.99 µM) | – | 12.5 | 16 | CCCCCCCCCCCC(=O)N[C@H](C(=O)N[C@@H](CCCNC(=N)N)C(=O)N[C@H](C(=O)N[C@@H](C)C(=O)N[C@@H](CCCNC(=N)N)C(=O)N[C@H](C(=O)NCC(=O)N[C@@H](CCCNC(=N)N)C(=O)N[C@@H](CO)C(=O)N[C@@H](CCCNC(=N)N)C(=O)N[C@@H](Cc1c[nH]c2ccccc12)C(=O)N[C@@H](CCCNC(=N)N)C(=O)N[C@@H](CC(=O)O)C(=O)N[C@H](C(=O)N[C@@H](C)C(=O)N[C@@H](CCCNC(=N)N)C(=O)N[C@@H](CC(N)=O)C(=O)N[C@@H](Cc1ccccc1)C(=O)N[C@@H](CCSC)C(=O)N[C@@H](CCCNC(=N)N)C(N)=O)C(C)C)[C@@H](C)O)C(C)C)[C@@H](C)O [Peptide 69] (Lauroyl-TRVARTGRSRWRDVARNFMR-NH2)

Further lines, the molecule ahead of its results:

SMILES | MIC S. aureus [1] [µg/mL] | MIC E. coli [2] [µg/mL] | MIC P. aeruginosa [3] [µg/mL] | MIC S. dublin (Salmonella dublin (Lane)) [µg/mL] | MIC S. epidermidis [4] [µg/mL] | MIC P. acnes [5] [µg·days/mL] | MIC C. albicans [6] [e ug/mL]
CCCCCCCCCCCC(=O)N[C@H](C(=O)N[C@@H](CCCNC(=N)N)C(=O)N[C@H](C(=O)N[C@@H](CO)C(=O)N[C@@H](CCCNC(=N)N)C(=O)N[C@H](C(=O)NCC(=O)N[C@@H](CCCNC(=N)N)C(=O)N[C@@H](CO)C(=O)N[C@@H](CCCNC(=N)N)C(=O)N[C@@H](Cc1c[nH]c2ccccc12)C(=O)N[C@@H](CCCNC(=N)N)C(=O)N[C@@H](CC(=O)O)C(=O)N[C@@H](Cc1c[nH]c2ccccc12)C(=O)N[C@@H](CO)C(=O)N[C@@H](CCCNC(=N)N)C(=O)N[C@@H](CC(N)=O)C(=O)N[C@@H](Cc1ccccc1)C(=O)N[C@@H](CCSC)C(=O)N[C@@H](CCCNC(=N)N)C(N)=O)[C@@H](C)O)C(C)C)[C@@H](C)O [Peptide 63] (Lauroyl-TRVSRTGRSRWRDWSRNFMR-NH2) | 8 (≈ 2.87 µM) | 32 (≈ 11.5 µM) | 64 (≈ 22.9 µM) | 16 (≈ 5.73 µM) | 2 (≈ 0.716 µM) | 12.5 | 16
CSCC[C@H](NC(=O)[C@H](Cc1ccccc1)NC(=O)[C@H](CC(N)=O)NC(=O)[C@H](CCCNC(=N)N)NC(=O)[C@H](CO)NC(=O)[C@H](Cc1c[nH]c2ccccc12)NC(=O)[C@H](CC(=O)O)NC(=O)[C@H](CCCNC(=N)N)NC(=O)[C@H](Cc1c[nH]c2ccccc12)NC(=O)[C@H](CCCNC(=N)N)NC(=O)[C@H](CO)NC(=O)[C@H](CCCNC(=N)N)NC(C)=O)C(=O)N[C@@H](CCCNC(=N)N)C(N)=O [Peptide 91, Ac-RSRWRDWSRNFMR-NH2] (Ac-RSRWRDWSRNFMR-NH2) | >64 | – | – | >64 | – | 25 | 16
CSCC[C@H](NC(=O)[C@H](Cc1ccccc1)NC(=O)[C@H](CC(N)=O)NC(=O)[C@H](CCCNC(=N)N)NC(=O)[C@H](C)NC(=O)[C@@H](NC(=O)[C@H](CC(=O)O)NC(=O)[C@H](CCCNC(=N)N)NC(=O)[C@H](Cc1c[nH]c2ccccc12)NC(=O)[C@H](CCCNC(=N)N)NC(=O)[C@H](CO)NC(=O)[C@H](CCCNC(=N)N)NC(=O)CNC(=O)[C@@H](NC(=O)[C@H](CCCNC(=N)N)NC(=O)[C@H](C)NC(=O)[C@@H](NC(=O)[C@H](CCCNC(=N)N)NC(=O)[C@@H](NC(C)=O)[C@@H](C)O)C(C)C)[C@@H](C)O)C(C)C)C(=O)N[C@@H](CCCNC(=N)N)C(N)=O [Peptide 38] (Ac-TRVARTGRSRWRDVARNFMR-NH2) | >64 | – | – | >64 | – | 25 | 16
CCCCCCCCCCCC(=O)N[C@H](CCCNC(=N)N)C(=O)N[C@H](CO)C(=O)N[C@H](CCCNC(=N)N)C(=O)N[C@H](Cc1c[nH]c2ccccc12)C(=O)N[C@H](CCCNC(=N)N)C(=O)N[C@H](CC(=O)O)C(=O)N[C@H](Cc1c[nH]c2ccccc12)C(=O)N[C@H](CO)C(=O)N[C@H](CCCNC(=N)N)C(=O)N[C@H](CC(N)=O)C(=O)N[C@H](Cc1ccccc1)C(=O)N[C@H](CCSC)C(=O)N[C@H](CCCNC(=N)N)C(N)=O [Peptide 89, Lauryl-rsrwrdwsrnfmr-NH2] (Lauroyl-[dR][dS][dR][dW][dR][dD][dW][dS][dR][dN][dF][dM][dR]-NH2) | 4 (≈ 1.97 µM) | – | – | 4 (≈ 1.97 µM) | – | 25 | 32
